In ChEMBL document CHEMBL1131720, “Phosphofurylalanine, a stable analog of phosphohistidine” (Bioorg Med Chem Lett, 1999):

Columns and labels:
Sus scrofa = species on record: Sus scrofa; assay: Kinetic resolution using pig liver esterase, 240 U.mL e-1 at 48 hr expressed as percent ee unreacted; assay type: ADME, organism-based; settings: in vivo
[1] = Kinetic resolution using papain, 170 U.mL e-1 at 24 hr expressed as percent ee unreacted; assay type: ADME
Equus caballus = species on record: Equus caballus; assay: Kinetic resolution using horse liver esterase, 3 U.mL e-1 at 48 hr expressed as percent ee unreacted; assay type: ADME, organism-based; settings: in vivo
[2] = Kinetic resolution using alpha-chymotrypsin, 375 U.mL e-1 at 72 hr expressed as percent ee unreacted; assay type: ADME

Row | Compound | Unreacted drug (Sus scrofa) [%] | Unreacted drug [1] [%] | Unreacted drug (Equus caballus) [%] | Unreacted drug [2] [%]
1 | CCOP(=O)(OCC)c1coc(C[C@H](NC(=O)OC(C)(C)C)C(=O)O)c1 | 60 | 75 | 50 | 
2 | CCOC(=O)[C@@H](Cc1cc(P(=O)(OCC)OCC)co1)NC(=O)OC(C)(C)C | 70 | > 96 | 60 | 0
